Consider 1 molecule from US20060121102A1, “Transdermal systems for the delivery of estrogens and progestins” (priority 2004, published 2006).

This series in a line: In vitro skin permeation (flux), modified Franz diffusion cells. Format: in vitro ADME, human. The conditions noted are these: as permeation enhancer, compared with other enhancers such as lauryl lactate. As to the method:
In vitro skin permeation studies were conducted using modified Franz diffusion cells to determine the delivery of estrogens and progestins from various drug polymer matrices. The release liner was peeled off of the drug matrix layer. The drug matrix layer was then gently pressed onto the stratum corneum of heat separated epidermis from human cadaver skin. This skin membrane with the backing and drug matrix affixed thereto was then mounted between the two half-cells and fastened with a clamp. The receiver compartment was filled with 1% hydroxylpropylcyclodextrin in normal saline solution with 0.01% sodium azide. The temperature was maintained at 32° C. Samples were taken at preset intervals and assayed by HPLC. The flux was calculated from the slope of the cumulative amounts of the drug in the receiver compartment versus time.

As for `CC(O)C(=O)O` (stereo not shown) [lactic acid], the “enhancing the transdermal flux of norelgestromin” value is “particularly effective”.
